# Test results taken from patent US7390915B1, “Phosphine transition metal complex having ferrocene skeleton, process for making the same, and anti-cancer agent” (Nippon Chemical Industrial Co., Ltd, priority 2007, dated 2008).
# Tested on: HL-60 (human acute myeloid leukemia cells)
# Test: Evaluation of anti-cancer activity: HL-60 cell survival by modified Mosmann (MTT) method
# Format: cell-based
# Settings: read-out: IC50 (concentration of inhibitor that inhibits cell growth to 50%), HL-60 cells, 24 hours culture with compound, average of at least three experiments
# Method: <Evaluation of Anti-Cancer Activity>
# HL-60 (human acute myeloid leukemia cells) as the cancerous cells was cultured under a 5% CO2 atmosphere in a wet incubator at 37° C. in a Roswell Park Memorial Institute medium (RPMI 1640) supplemented with 10% fetal bovine serum and 1% antibiotic and antimycotic.
# The cells were washed with PBS and counted. A 1×10^6 cells/mL suspension was then prepared using the same medium. The suspension was added to a sterilized 96-well microplate at a density of 50000 cells per well.
# The number of survived cells was then evaluated by a modified Mosmann method (T. Mosmann, J. Immunol. Method (1983) 65, 55-63). That is, a solution of a tetrazolium salt (3,[4,5-dimethylthiazol-2-yl]-2,5-diphenyltetrazolium bromide (MTT)) was added, and the culture was continued for 3 hours under the same conditions. Formazan crystals generated by enzymatic activity of the mitochondria in the cells were dissolved in 0.04 mol HCl/isopropyl alcohol and the absorbance at 595 nm was measured using a microplate reader (Bio-Rad 550). In order to eliminate the background, the absorbance at 630 nm was measured and subtracted from the observed absorbance at 595 nm. […] Note that in calculating the IC50 value, the average of values of at least three experiments conducted under the same conditions was used.
row,Substance,IC50 [µM]
1,Bis((R)-1-((S)-2-(dicyclohexylphosphino)ferrocenyl)ethyldicyclohexylphosphine)gold(I)chloride [Example 1],19.2
2,Bis((R)-1-((S)-2-(dicyclohexylphosphino)ferrocenyl)ethyldiphenylphosphine)gold(I)chloride [Example 3],7.92
3,Bis((R)-1-((S)-2-(diphenylphosphino)ferrocenyl)ethyldicyclohexylphosphine)gold(I)chloride [Example 2],8.69
4,Bis((S)-1-((R)-2-(dicyclohexylphosphino)ferrocenyl)ethyldiphenylphosphine)gold(I)chloride [Example 4],9.21
5,"bis(1,1′-bis-(diphenylphosphino)-2,2-bis-[(S)-4-isobutyl-2-yl]ferrocene)digold(I)dichloride [Example 7]",2.1
6,"bis(1,1′-bis-(diphenylphosphino)-2,2-bis-[(S)-4-isopropyl-2-yl]ferrocene)digold(I)dichloride [Example 5]",0.803
7,"bis(1,1′-bis-(diphenylphosphino)-2,2-bis-[(S)-4-sec-butyl-2-yl]ferrocene)digold(I)dichloride [Example 8]",3.54
8,"bis(1,1′-bis-(diphenylphosphino)-2,2-bis-[(S)-4-tert-butyl-2-yl]ferrocene)digold(I)dichloride [Example 6]",2.31
